From US20220125051A1, “PRE-HARVEST DESICCATION METHOD” (SYNGENTA CROP PROTECTION AG, priority 2019, published 2022) come the findings set out here.

What all share (experiment): Post-emergence efficacy, Method A
Holding throughout (type): in vivo

Assay [1] has as its system Echinochloa crus-galli (ECHCG). The note with it: Echinochloa crus-galli, post-emergence, 312 h, evaluated after 13 days. As for the experimental part:
(§1) Seeds of a variety of test species were sown in standard soil in pots. After cultivation for 14 days (post-emergence) under controlled conditions in a glasshouse (at 24/16° C., day/night; 14 hours light; 65% humidity), the plants were sprayed with an aqueous spray solution derived from the dissolution of the technical active ingredient formula (I) in a small amount of acetone and a special solvent and emulsifier mixture referred to as IF50 (11.12% Emulsogen EL360 TM+44.44% N-methylpyrrolidone+44.44% Dowanol DPM glycol ether), to create a 50 g/I solution which was then diluted to required concentration using 0.25% or 1% Empicol ESC70 (Sodium lauryl ether sulphate)+1% ammonium sulphate as diluent. The test plants were then grown in a glasshouse under controlled conditions (at 24/16° C., day/night; 14 hours light; 65% humidity) and watered twice daily. After 13 days the test was evaluated (100=total damage to plant; 0=no damage to plant).
(§2) Ipomoea hederacea (IPOHE), Euphorbia heterophylla (EPHHL), Chenopodium album (CHEAL), Amaranthus palmeri (AMAPA), Lolium perenne (LOLPE), Digitaria sanguinalis (DIGSA), Eleusine indica (ELEIN), Echinochloa crus-galli (ECHCG), Setaria faberi (SETFA)

The subject of assay [2] is Digitaria sanguinalis (DIGSA). The note with it: Digitaria sanguinalis, post-emergence, 312 h, evaluated after 13 days. As for the experimental part: as §1, §2
Another assay has as its system Setaria faberi (SETFA). The note with it: Setaria faberi, post-emergence, 312 h, evaluated after 13 days. As for the experimental part: as §1, §2
The test system of the next assay is Lolium perenne (LOLPE). As to conditions: Lolium perenne, post-emergence, 312 h, evaluated after 13 days. As for the experimental part: as §1, §2
Assay [3] concerns Ipomoea hederacea (IPOHE). The note with it: Ipomoea hederacea, post-emergence, 312 h, evaluated after 13 days. As for the experimental part: as §1, §2
In assay [4] the test system is Euphorbia heterophylla (EPHHL). The note with it: Euphorbia heterophylla, post-emergence, 312 h; Application rate 500 g/Ha; evaluated after 13 days; 100=total damage to plant, 0=no damage to plant; read-out: Control of weed species after post-emergence application, EPHHL. As for the experimental part: as §1, §2
The next assay relates to Eleusine indica (ELEIN). The note with it: Eleusine indica, post-emergence, 312 h, evaluated after 13 days. As for the experimental part:
as §1, §2

For assay [5], the system named is Chenopodium album (CHEAL). The note with it: Chenopodium album, post-emergence, 312 h, evaluated after 13 days. As for the experimental part: as §1, §2
Assay [6] deals with Amaranthus palmeri (AMAPA). As to conditions: Amaranthus palmeri, post-emergence, 312 h; Application Rate 500 g/Ha; evaluated after 13 days; Method A; read-out: Control of weed species after post-emergence application, AMAPA (100=total damage to plant; 0=no damage to plant). As for the experimental part: as §1, §2
The mark [7] stands for this setting: Application rate 500 g/Ha, 100=total damage to plant, 0=no damage to plant, read-out: Control of weed species after post-emergence application, ECHCG.
Where [8] appears, read: Application rate 500 g/Ha, 100=total damage to plant, 0=no damage to plant, read-out: Control of weed species after post-emergence application, DIGSA.
Setting [9] is: Application rate 500 g/Ha, 100=total damage to plant, 0=no damage to plant, read-out: Control of weed species after post-emergence application, SETFA.
Where [10] appears, read: Application rate 500 g/Ha, 100=total damage to plant, 0=no damage to plant, read-out: Control of weed species after post-emergence application, LOLPE.
[11] abbreviates: Application rate 500 g/Ha, 100=total damage to plant, 0=no damage to plant, read-out: Control of weed species after post-emergence application, IPOHE.
Where [12] appears, read: Application rate 500 g/Ha, 100=total damage to plant, 0=no damage to plant, read-out: Control of weed species after post-emergence application, ELEIN.
Setting [13] is: Application rate 500 g/Ha, 100=total damage to plant, 0=no damage to plant, read-out: Control of weed species after post-emergence application, CHEAL.
Where [14] appears, read: Application Rate 500 g/Ha, Method A, read-out: Control of weed species after post-emergence application, ECHCG (100=total damage to plant; 0=no damage to plant).
[15] abbreviates: Application Rate 500 g/Ha, Method A, read-out: Control of weed species after post-emergence application, DIGSA (100=total damage to plant; 0=no damage to plant).
The mark [16] stands for this setting: Application Rate 500 g/Ha, Method A, read-out: Control of weed species after post-emergence application, SETFA (100=total damage to plant; 0=no damage to plant).
Setting [17] is: Application Rate 500 g/Ha, Method A, read-out: Control of weed species after post-emergence application, LOLPE (100=total damage to plant; 0=no damage to plant).
Where [18] appears, read: Application Rate 500 g/Ha, Method A, read-out: Control of weed species after post-emergence application, IPOHE (100=total damage to plant; 0=no damage to plant).
Where [19] appears, read: Application Rate 500 g/Ha, Method A, read-out: Control of weed species after post-emergence application, ELEIN (100=total damage to plant; 0=no damage to plant).
[20] abbreviates: Application Rate 500 g/Ha, Method A, read-out: Control of weed species after post-emergence application, CHEAL (100=total damage to plant; 0=no damage to plant).

Each structure is given as a SMILES string. Read-outs that look alike come from different tables or passages of the source.

With `CS(=O)(=O)c1cnc(-c2cc[n+](CCS(=O)(=O)[O-])nc2)nc1` [Compound A15], the pest or weed control at 500 g/ha in [1] (setting [7]) was found to be 40%; in assay [2] (setting [8]), 60%; with Setaria faberi (SETFA) (setting [9]), 50%; with Lolium perenne (LOLPE) (setting [10]) it was 10%; in [3] (setting [11]), 10%; in [4], 20%. Moreover, the figures for the pest or weed control at 500 g/ha (in the assay on Eleusine indica (ELEIN) (setting [12]); in assay [5] (setting [13])) were 80% and 90%, respectively.

For the molecule `CN(C)c1cnc(-c2cc[n+](CCS(=O)(=O)[O-])nc2)nc1` [Compound A18], the pest or weed control at 500 g/ha in assay [1] (setting [7]) turned out to be 30%; in assay [2] (setting [8]), 50%; in the assay on Setaria faberi (SETFA) (setting [9]), 40%; in the assay on Lolium perenne (LOLPE) (setting [10]), 10%; in assay [3] (setting [11]) it was 10%; in assay [4] it was 10%. The pest or weed control at 500 g/ha in the assay with Eleusine indica (ELEIN) (setting [12]) was determined as 60%; in [5] (setting [13]) it was 0%.

For `O=S(=O)([O-])CC[n+]1ccc(-c2nccc(C(F)(F)F)n2)cn1` [Compound A23], the pest or weed control at 500 g/ha in [1] (setting [7]) is 70%; in assay [2] (setting [8]), 80%; with Setaria faberi (SETFA) (setting [9]), 100%; in the assay with Lolium perenne (LOLPE) (setting [10]) it was 70%; in assay [3] (setting [11]), 60%; in assay [4], 90%. In addition, the pest or weed control at 500 g/ha with Eleusine indica (ELEIN) (setting [12]) is 100%; in assay [5] (setting [13]), 80%.

For `COc1cc(OC)nc(-c2cc[n+](CCS(=O)(=O)[O-])nc2)n1` [Compound A32], the pest or weed control at 500 g/ha in assay [1] (setting [7]) amounted to 70%; in assay [2] (setting [8]) it was 90%; in the assay with Setaria faberi (SETFA) (setting [9]), 80%; in the assay with Lolium perenne (LOLPE) (setting [10]), 30%; in assay [3] (setting [11]) it was 40%; in assay [4], 70%. In addition, the values for the pest or weed control at 500 g/ha (in the assay on Eleusine indica (ELEIN) (setting [12]); in assay [5] (setting [13])) were 100% and 70%, respectively.

As for `O=C([O-])CC[n+]1ccc(-c2ncc(Cl)cn2)cn1` [Compound A43], the pest or weed control at 500 g/ha in assay [1] (setting [7]) was determined as 70%; in assay [2] (setting [8]) it was 90%; in the assay on Setaria faberi (SETFA) (setting [9]), 100%; in the assay with Lolium perenne (LOLPE) (setting [10]) it was 20%; in assay [3] (setting [11]), 30%; in assay [4], 80%. For the same molecule, the pest or weed control at 500 g/ha in the assay with Eleusine indica (ELEIN) (setting [12]) turned out to be 100%; in assay [5] (setting [13]), 90%.

In the case of `CN(C)c1ccnc(-c2cc[n+](CCC(=O)[O-])nc2)n1` [Compound A45], the pest or weed control at 500 g/ha in [1] (setting [7]) came to 90%; in assay [2] (setting [8]), 80%; in the assay on Setaria faberi (SETFA) (setting [9]) it was 100%; in the assay on Lolium perenne (LOLPE) (setting [10]) it was 30%; in [3] (setting [11]) it was 20%; in [4], 50%. Also, the pest or weed control at 500 g/ha in the assay on Eleusine indica (ELEIN) (setting [12]) is 80%; in [5] (setting [13]), 60%.

`Cc1cc(C)nc(-c2cc[n+](CCS(=O)(=O)[O-])nc2)n1` [Compound A48]: the pest or weed control at 500 g/ha in [1] (setting [7]) was determined as 70%; in [2] (setting [8]), 90%; in the assay on Setaria faberi (SETFA) (setting [9]), 100%; in the assay with Lolium perenne (LOLPE) (setting [10]) it was 70%; in [3] (setting [11]), 20%; in assay [4], 90%. The pest or weed control at 500 g/ha (with Eleusine indica (ELEIN) (setting [12]); in assay [5] (setting [13])) was 100% in each case.

Take `O=C([O-])CC[n+]1ccc(-c2ncc(C3CC3)cn2)cn1` [Compound A51]: the pest or weed control at 500 g/ha in [1] (setting [7]) worked out at 60%; in assay [2] (setting [8]), 90%; in the assay on Setaria faberi (SETFA) (setting [9]), 70%; with Lolium perenne (LOLPE) (setting [10]) it was 60%; in assay [3] (setting [11]), 20%; in [4] it was 30%. The figures for the pest or weed control at 500 g/ha (in the assay on Eleusine indica (ELEIN) (setting [12]); in assay [5] (setting [13])) were 90% and 70%, respectively.

As for `O=S(=O)([O-])CCC[n+]1ccc(-c2ccc(O)nn2)cn1` [Compound A52], the pest or weed control at 500 g/ha was 60% in assay [1] (setting [7]); 70% in assay [2] (setting [8]); 70% in the assay with Setaria faberi (SETFA) (setting [9]); 10% in the assay with Lolium perenne (LOLPE) (setting [10]); 20% in assay [3] (setting [11]); 60% in assay [4]. The pest or weed control at 500 g/ha came out at 70% in the assay on Eleusine indica (ELEIN) (setting [12]) and 60% in [5] (setting [13]).

Take `O=S(=O)([O-])CCC[n+]1ccc(-c2ccnc(Cl)n2)cn1` [Compound A53]: the pest or weed control at 500 g/ha in assay [1] (setting [7]) was 70%; in [2] (setting [8]), 80%; with Setaria faberi (SETFA) (setting [9]), 80%; with Lolium perenne (LOLPE) (setting [10]) it was 40%; in assay [3] (setting [11]), 70%; in assay [4] it was 80%. Also, the pest or weed control at 500 g/ha came to 70% in the assay on Eleusine indica (ELEIN) (setting [12]) and 100% in assay [5] (setting [13]).

As to `Cc1cc(-c2cc[n+](CCS(=O)(=O)[O-])nc2)nc(C)n1` [Compound A231], the pest or weed control at 500 g/ha came to 50% in assay [1] (setting [14]); 80% in assay [2] (setting [15]); 60% in the assay with Setaria faberi (SETFA) (setting [16]); 60% in the assay on Lolium perenne (LOLPE) (setting [17]); 60% in [3] (setting [18]); 60% with Eleusine indica (ELEIN) (setting [19]). For the same molecule, the pest or weed control at 500 g/ha in [6] was 100%; in assay [5] (setting [20]) it was 90%.

Consider `CCOP(=O)(O)CCC[n+]1ccc(-c2ncccn2)cn1` [Compound A232], for which the pest or weed control at 500 g/ha was 100% in [1] (setting [14]); 90% in [2] (setting [15]); 80% with Setaria faberi (SETFA) (setting [16]); 20% with Lolium perenne (LOLPE) (setting [17]); 0% in assay [3] (setting [18]); 50% in the assay on Eleusine indica (ELEIN) (setting [19]). Further, the pest or weed control at 500 g/ha is 100% in assay [6] and 90% in assay [5] (setting [20]).

Regarding `O=P(O)(O)CCC[n+]1ccc(-c2ncccn2)cn1` [Compound A233], the pest or weed control at 500 g/ha is 60% in assay [1] (setting [14]); 60% in assay [2] (setting [15]); 70% in the assay on Setaria faberi (SETFA) (setting [16]); 20% in the assay with Lolium perenne (LOLPE) (setting [17]); 70% in assay [3] (setting [18]); 50% in the assay with Eleusine indica (ELEIN) (setting [19]). For the same molecule, the pest or weed control at 500 g/ha in assay [6] and in assay [5] (setting [20]) was 100% each time.
